Publication PMC6155222, “3-Substituted N-Benzylpyrazine-2-carboxamide Derivatives: Synthesis, Antimycobacterial and Antibacterial Evaluation” (Molecules : A Journal of Synthetic Chemistry and Natural …, 2017)
≈ marks a conversion by molar mass, not a printed value. Like-named read-outs stand apart in the source and are kept apart here.

Legend:
[1] = test system: Mycobacterium smegmatis CCM 4622 (ATCC 607); assay: Antimycobacterial screening, microdilution broth panel method with resazurin; format: cell-based; conditions: Mycolicibacterium smegmatis, 48 h + 4 h
Method: An antimycobacterial assay was performed with fast growing Mycobacterium smegmatis CCM 4622 (ATCC 607) from the Czech Collection of Microorganisms (Brno, Czech Republic). The technique used for activity determination was a microdilution broth panel method using 96-well microtitration plates. The culturing medium was Middlebrook 7H9 (MB) broth (Sigma-Aldrich), enriched with 0.4% of glycerol (Sigma-Aldrich) and 10% of Middlebrook OADC growth supplement (Himedia, Mumbai, India). Tested compounds were dissolved in DMSO (Sigma-Aldrich), and the MB broth was then added to obtain a concentration of 2000 μg·mL^−1. Standards used for activity determination were isoniazid (INH), rifampicin (RIF), and ciprofloxacin (CPX) (Sigma-Aldrich). Final concentrations were reached by binary dilution and the addition of mycobacterial suspension, and were set as 500, 250, 125, 62.5, 31.25, 15.625, 7.81, and 3.91 μg·mL^−1, except for the standards of ciprofloxacin and rifampicin, where the final concentrations were 12.5, 6.25, 3.125, 1.56, 0.78, 0.39, 0.195, and 0.098 μg·mL^−1. […] Plates were also sealed with polyester adhesive film and incubated in the dark at 37 °C, without agitation. The addition of 0.01% solution of resazurin sodium salt followed after 48 h. This stain was prepared by dissolving resazurin sodium salt (Sigma-Aldrich) in deionised water, producing a 0.02% solution. Then, a 10% aqueous solution of Tween 80 (Sigma-Aldrich) was prepared. Both liquids were mixed up making use of the same volumes and filtered through a syringe membrane filter. Microtitration panels were then incubated for a further 4 h. Antimycobacterial activity was expressed as the minimal inhibition concentration (MIC) and the value was read on the basis of stain colour change (blue colour—active compound; pink colour—not active compound). […] All experiments were conducted in duplicate.

[2] = test system: Mycobacterium tuberculosis H37Rv; assay: Microplate Alamar Blue Assay (MABA), microdilution panel method; format: cell-based
[3] = Determination of lipophilicity by RP-HPLC (log k); conditions: RP-HPLC capacity factor, MeOH 70% / H2O 30%, C18, 30 °C
Method: Log k was determined using an Agilent Technologies 1200 SL liquid chromatograph with Diode-array Detector SL G1315C (Agilent Technologies Inc., Colorado Springs, CO, USA), with pre-column ZORBAX XDB-C18 5 μm, 4 mm × 4 mm, Part No. 7995118-504 (Agilent Technologies Inc.) and column ZORBAX Eclipse XDB-C18 5 μm, 4.6 mm × 250 mm, Part No. 7995118-585 (Agilent Technologies Inc.). The separation process was controlled by Agilent ChemStation, version B.04.02, extended by a spectral module (Agilent Technologies Inc.). The mobile phase consisted of MeOH (HPLC grade, 70%) and H2O (HPLC-Milli-Q Grade, 30%).
The flow rate was 1.0 mL/min, samples were injected in a volume of 20 μL, and the column temperature was 30 °C. A value of 210 nm as the detection wavelength and 270 nm as the monitor wavelength were used. Retention times (tR) were measured in minutes. The dead time of the system (tD) was determined as the retention time of the KI methanol solution. Capacity factors k for individual compounds were calculated according to the formula k = (tR − tD)/tD. Log k, calculated from the capacity factor k, as used as the lipophilicity index converted to log scale.

[4] = Cytotoxicity assay, CellTiter 96 Aqueous One Solution; format: cell-based; conditions: human; HepG2 cells, 24 h exposure
Method: The human liver hepatocellular carcinoma cell line HepG2 (passage 35–36), purchased from Health Protection Agency Culture Collections (ECACC, Salisbury, UK), was routinely cultured in Minimum Essential Eagle Medium MEM (Sigma-Aldrich) supplemented with 10% fetal bovine serum (PAA Laboratories GmbH, Pasching, Austria), 2mM L-glutamine solution (Sigma-Aldrich), and 1% non-essential amino acid solution (Sigma-Aldrich), in a humidified atmosphere containing 5% CO2 at 37 °C.
For subculturing, the cells were harvested after trypsin/EDTA (Sigma-Aldrich) treatment at 37 °C. To evaluate the cytotoxicity, the HepG2 cells treated with the tested substances were used as experimental groups, whereas untreated HepG2 cells served as control groups.
The HepG2 cells were seeded in a density of 1 × 10^4 cells per well on a 96-well plate. The following day (24 h after seeding), they were treated with tested substances dissolved in DMSO (maximal incubation concentration of DMSO was 1%). […] The treatment was carried out in a humidified atmosphere containing 5% CO2 at 37 °C, in triplicate, for 24 h. The controls representing 100% cell viability, 0% cell viability (the cells treated with 10% DMSO), no-cell controls, and vehiculum controls were incubated in triplicate, simultaneously. After 24 h exposure, the reagent from the kit CellTiter 96® Aqueous One Solution Cell Proliferation Assay (Promega) was added, according to the recommendation of the manufacturer. After 2 h incubation at 37 °C in humidified, 5% CO2 atmosphere, the absorbance was recorded at 490 nm. Inhibitory curves were constructed for each compound, plotting incubation concentrations vs. percentage of absorbance relative to untreated control. The standard toxicological parameter IC50 was calculated by a nonlinear regression analysis of the inhibitory curves using GraphPad Prism software (version 6, GraphPad Software, Inc., La Jolla, CA, USA).

[5] = test system: Staphylococcus aureus CCM 4516/08; assay: Antibacterial microdilution broth method; format: cell-based; conditions: CCM4516, 24 h, read-out: MIC after 24 h S. aureus
Method: (§1) Microdilution broth method. Antibacterial evaluation was performed against eight bacterial strains from the Czech Collection of Microorganisms (Brno, Czech Republic) (Staphylococcus aureus CCM 4516/08, Escherichia coli CCM 4517, Pseudomonas aeruginosa CCM 1961) or clinical isolates from the Department of Clinical Microbiology, University Hospital and Faculty of Medicine in Hradec Králové, Charles University in Prague, Czech Republic (Staphylococcus aureus H 5996/08-methicilin resistant (MRSA), Staphylococcus epidermidis H 6966/08, Enterococcus sp. J 14365/08, Klebsiella pneumoniae D 11750/08, Klebsiella pneumoniae J 14368/08-ESBL positive). All strains were subcultured on Mueller-Hinton agar (MHA) (Difco/Becton Dickinson, Detroit, MI, USA) at 35 °C and maintained on the same medium at 4 °C. The compounds were dissolved in DMSO, and the antibacterial activity was determined in Mueller-Hinton liquid broth (Difco/Becton Dickinson), and buffered to pH 7.0. Controls consisted of medium and DMSO alone. […] The minimum inhibitory concentration (MIC), defined as the minimum concentration to prevent the visible growth compared to control, was determined after 24 and 48 h of static incubation at 35 °C. The standards were neomycin, bacitracin, penicillin G, ciprofloxacin, and phenoxymethylpenicillin.

[6] = test system: Staphylococcus aureus H 5996/08-methicilin resistant (MRSA); assay: Antibacterial microdilution broth method; format: cell-based; conditions: 24 h, read-out: MIC after 24 h MRSA
Method: as §1

[7] = test system: Staphylococcus epidermidis H 6966/08; assay: Antibacterial microdilution broth method; format: cell-based; conditions: read-out: MIC after 24 h S. epidermidis
Method: as §1

[8] = Staphylococcus epidermidis, H6966/08, 24 h

O=C(O)c1cn(C2CC2)c2cc(N3CCNCC3)c(F)cc2c1=O [CPX, ciprofloxacin, reference compound]
MIC [1]: 0.098 to 0.195 mg/L

Cc1ccccc1CNC(=O)c1nccnc1Cl [Compound 1, 3-Chloro-N-(2-methylbenzyl)pyrazine-2-carboxamide]
MIC ([2]; pH 6.6): > 100 mg/L
MIC [1]: 250 mg/L
Log k [3]: 0.009

Cc1ccccc1CNC(=O)c1nccnc1NCc1ccccc1C [Compound 1a, N-(2-Methylbenzyl)-3-((2-methylbenzyl)amino)pyrazine-2-carboxamide]
MIC ([2]; pH 6.6): 12.5 mg/L
MIC ([2]; value in parentheses): 36 µM
MIC [1]: > 500 mg/L
IC50 at 24 h [4]: > 250 µM
Log k [3]: 1.459

Cc1ccc(CNC(=O)c2nccnc2Cl)cc1 [Compound 2, 3-Chloro-N-(4-methylbenzyl)pyrazine-2-carboxamide]
MIC ([2]; pH 6.6): > 100 mg/L
MIC [1]: > 500 mg/L
MIC [5]: 125 µM (≈ 32.7 µg/mL)
MIC ([6]; Staphylococcus aureus, MRSA): > 500 µM
MIC [7, 8]: 500 µM (≈ 131 µg/mL)
Log k [3]: 0.033

Cc1ccc(CNC(=O)c2nccnc2NCc2ccc(C)cc2)cc1 [Compound 2a, N-(4-Methylbenzyl)-3-((4-methylbenzyl)amino)pyrazine-2-carboxamide]
MIC ([2]; pH 6.6): 25 mg/L
MIC ([2]; value in parentheses): 72 µM
MIC [1]: > 250 mg/L
Log k [3]: 1.517

COc1ccc(CNC(=O)c2nccnc2Cl)cc1 [Compound 3, 3-Chloro-N-(4-methoxybenzyl)pyrazine-2-carboxamide]
MIC ([2]; pH 6.6): 25 mg/L
MIC ([2]; value in parentheses): 90 µM
MIC [1]: 125 mg/L
MIC [5]: 31.2 µM (≈ 8.68 µg/mL)
MIC ([6]; Staphylococcus aureus, MRSA): 125 µM (≈ 34.7 µg/mL)
MIC [7, 8]: 250 µM (≈ 69.4 µg/mL)
Log k [3]: −0.202

COc1ccc(CNC(=O)c2nccnc2Cl)c(OC)c1 [Compound 4, 3-Chloro-N-(2,4-dimethoxybenzyl)pyrazine-2-carboxamide]
MIC ([2]; pH 6.6): > 100 mg/L
MIC [1]: > 500 mg/L
MIC [5]: 125 µM (≈ 38.5 µg/mL)
MIC ([6]; Staphylococcus aureus, MRSA): > 500 µM
MIC [7, 8]: > 500 µM
Log k [3]: −0.095

O=C(NCc1ccccc1Cl)c1nccnc1NCc1ccccc1Cl [Compound 5a, N-(2-Chlorobenzyl)-3-((2-chlorobenzyl)amino)pyrazine-2-carboxamide]
MIC ([2]; pH 6.6): > 100 mg/L
MIC [1]: > 500 mg/L
Log k [3]: 1.542

O=C(NCc1cccc(Cl)c1)c1nccnc1Cl [Compound 6, 3-Chloro-N-(3-chlorobenzyl)pyrazine-2-carboxamide]
MIC ([2]; pH 6.6): 100 mg/L
MIC [1]: 125 mg/L
Log k [3]: 0.060

O=C(NCc1cccc(Cl)c1)c1nccnc1NCc1cccc(Cl)c1 [Compound 6a, N-(3-Chlorobenzyl)-3-((3-chlorobenzyl)amino)pyrazine-2-carboxamide]
MIC ([2]; pH 6.6): > 100 mg/L
MIC [1]: > 500 mg/L
Log k [3]: 1.515

O=C(NCc1ccc(Cl)cc1)c1nccnc1Cl [Compound 7, 3-Chloro-N-(4-chlorobenzyl)pyrazine-2-carboxamide]
MIC ([2]; pH 6.6): > 100 mg/L
MIC [1]: 500 mg/L
Log k [3]: 0.082

O=C(NCc1ccc(Cl)cc1Cl)c1nccnc1Cl [Compound 8, 3-Chloro-N-(2,4-dichlorobenzyl)pyrazine-2-carboxamide]
MIC ([2]; pH 6.6): > 100 mg/L
MIC [1]: 125 mg/L
MIC [5]: 125 µM (≈ 39.6 µg/mL)
MIC ([6]; Staphylococcus aureus, MRSA): 250 µM (≈ 79.1 µg/mL)
MIC [7, 8]: 125 µM (≈ 39.6 µg/mL)
Log k [3]: 0.375

O=C(NCc1ccc(Cl)c(Cl)c1)c1nccnc1Cl [Compound 9, 3-Chloro-N-(3,4-dichlorobenzyl)pyrazine-2-carboxamide]
MIC ([2]; pH 6.6): 100 mg/L
MIC [1]: 250 mg/L
MIC [5]: 62.5 µM (≈ 19.8 µg/mL)
MIC ([6]; Staphylococcus aureus, MRSA): 250 µM (≈ 79.1 µg/mL)
MIC [7, 8]: 31.2 µM (≈ 9.89 µg/mL)
Log k [3]: 0.309

O=C(NCc1ccccc1F)c1nccnc1Cl [Compound 10, 3-Chloro-N-(2-fluorobenzyl)pyrazine-2-carboxamide]
MIC ([2]; pH 6.6): > 100 mg/L
MIC [1]: 125 mg/L
Log k [3]: −0.154

O=C(NCc1ccccc1F)c1nccnc1NCc1ccccc1F [Compound 10a, N-(2-Fluorobenzyl)-3-((2-fluorobenzyl)amino)pyrazine-2-carboxamide]
MIC ([2]; pH 6.6): > 100 mg/L
MIC [1]: > 500 mg/L
Log k [3]: 1.108

O=C(NCc1ccc(F)cc1)c1nccnc1Cl [Compound 11, 3-Chloro-N-(4-fluorobenzyl)pyrazine-2-carboxamide]
MIC ([2]; pH 6.6): > 100 mg/L
MIC [1]: 250 mg/L
Log k [3]: −0.139

O=C(NCc1ccc(F)cc1)c1nccnc1NCc1ccc(F)cc1 [Compound 11a, N-(4-Fluorobenzyl)-3-((4-fluorobenzyl)amino)pyrazine-2-carboxamide]
MIC ([2]; pH 6.6): > 100 mg/L
MIC [1]: > 500 mg/L
Log k [3]: 1.058

O=C(NCc1cccc(C(F)(F)F)c1)c1nccnc1Cl [Compound 12, 3-Chloro-N-(3-(trifluoromethyl)benzyl)pyrazine-2-carboxamide]
MIC ([2]; pH 6.6): > 100 mg/L
MIC [1]: 125 mg/L
Log k [3]: 0.110

O=C(NCc1ccc(C(F)(F)F)cc1)c1nccnc1Cl [Compound 13, 3-Chloro-N-(4-(trifluoromethyl)benzyl)pyrazine-2-carboxamide]
MIC ([2]; pH 6.6): > 100 mg/L
MIC [1]: > 500 mg/L
MIC [5]: 31.2 µM (≈ 9.87 µg/mL)
MIC ([6]; Staphylococcus aureus, MRSA): 500 µM (≈ 158 µg/mL)
MIC [7, 8]: 62.5 µM (≈ 19.7 µg/mL)
Log k [3]: 0.145

O=C(NCc1ccc(C(F)(F)F)cc1)c1nccnc1NCc1ccc(C(F)(F)F)cc1 [Compound 13a, N-(4-(Trifluoromethyl)benzyl)-3-((4-(trifluoromethyl)benzyl)amino)pyrazine-2-carboxamide]
MIC ([2]; pH 6.6): > 100 mg/L
MIC [1]: > 500 mg/L
MIC [5]: 62.5 µM (≈ 28.4 µg/mL)
MIC ([6]; Staphylococcus aureus, MRSA): > 500 µM
MIC [7, 8]: > 500 µM
Log k [3]: 1.593

CC1(C)S[C@@H]2[C@H](NC(=O)COc3ccccc3)C(=O)N2[C@H]1C(=O)O [Penicillin V, phenoxymethylpenicillin, reference compound]
MIC [5]: 0.12 µM (≈ 0.042 µg/mL)
MIC ([6]; Staphylococcus aureus, MRSA): 62.5 µM (≈ 21.9 µg/mL)
MIC [7, 8]: 3.9 µM (≈ 1.37 µg/mL)

CO[C@H]1/C=C/O[C@@]2(C)Oc3c(C)c(O)c4c(O)c(c(/C=N/N5CCN(C)CC5)c(O)c4c3C2=O)NC(=O)/C(C)=C\C=C\[C@H](C)[C@H](O)[C@@H](C)[C@@H](O)[C@@H](C)[C@H](OC(C)=O)[C@@H]1C [RIF, rifampicin, reference compound]
MIC [1]: 0.78 to 1.56 mg/L

neomycin [reference compound]
MIC [6]: 0.98 µM
MIC ([7]; 24 h): 7.81 µM
